Experimental data from ChEMBL document CHEMBL1201862, “PubChem BioAssay data set” (2004).
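Growth conditions: 96-well plates. Treatment: test compound, 48 hours, 5 concentrations. Analysis: linear interpolation between bracketing concentrations; unreached endpoints set to highest concentration. GI50 marks 50% less growth.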 Active and inactive are the calls of the source. Rule as the data show it: active = GI50 up to about 1.1 µM and inactive = higher.

Columns and labels:
Experiment in all cases: NCI-60 cell line screen, 48 h
[1] = test system: A498
[2] = test system: A549
[3] = test system: CAKI-1
[4] = test system: HCT-116
[5] = test system: M14
[6] = test system: MDA-MB-231
[7] = test system: MDA-N
[8] = test system: MOLT-4
[9] = test system: Malme-3M
[10] = test system: NCI/ADR-RES
[11] = test system: RPMI-8226
[12] = test system: RXF 393
[13] = test system: SF-539
[14] = test system: SK-MEL-28
[15] = test system: T47D
[16] = test system: TK-10
[17] = test system: U-251
[18] = test system: UACC-257
[19] = test system: UACC-62
[20] = test system: MCF7

SMILES	GI50 [1]	GI50 [2]	GI50 [3]	GI50 [4]	GI50 [5]	GI50 [6]	GI50 [7]	GI50 [8]	GI50 [9]	GI50 [10]	GI50 [11]	GI50 [12]	GI50 [13]	GI50 [14]	GI50 [15]	GI50 [16]	GI50 [17]	GI50 [18]	GI50 [19]	GI50 [20]
C[C@]12CC[C@H](O)C[C@@H]1CC[C@@H]1[C@@H]2CC[C@]2(C)[C@@H](C3=CC(=O)OC3)CC[C@]12O	4.5 µM (inactive)	0.627 µM (active)	1.81 µM (inactive)	1.73 µM (inactive)	3.45 µM (inactive)	8.89 µM (inactive)	2.02 µM (inactive)	0.359 µM (active)	2.16 µM (inactive)	2.07 µM (inactive)	4.21 µM (inactive)	0.736 µM (active)	1.29 µM (inactive)	7.5 µM (inactive)	3.77 µM (inactive)	4 µM (inactive)	3.73 µM (inactive)	4.03 µM (inactive)	3.55 µM (inactive)	–
O=[N+]([O-])c1ccc2nc(-c3ccccn3)c(-c3ccccn3)nc2c1	> 100 µM (inactive)	57.4 µM (inactive)	> 100 µM (inactive)	38.9 µM (inactive)	66.7 µM (inactive)	–	45.4 µM (inactive)	> 100 µM (inactive)	61.2 µM (inactive)	> 100 µM (inactive)	> 100 µM (inactive)	86.5 µM (inactive)	45.9 µM (inactive)	> 100 µM (inactive)	> 100 µM (inactive)	> 100 µM (inactive)	> 100 µM (inactive)	98.4 µM (inactive)	44.5 µM (inactive)	57.7 µM (inactive)
CCCCc1ccc(-n2sc3ncc(-c4ccccc4)cc3c2=O)cc1	> 100 µM (inactive)	> 100 µM (inactive)	64.3 µM (inactive)	> 100 µM (inactive)	> 100 µM (inactive)	–	> 100 µM (inactive)	> 100 µM (inactive)	–	> 100 µM (inactive)	> 100 µM (inactive)	> 100 µM (inactive)	–	> 100 µM (inactive)	22.6 µM (inactive)	> 100 µM (inactive)	> 100 µM (inactive)	> 10 µM (inactive)	> 100 µM (inactive)	> 100 µM (inactive)
CCN(CC)C(=S)SS(=O)(=O)c1ccc(C)cc1	> 100 µM (inactive)	–	17.7 µM (inactive)	–	13.9 µM (inactive)	35.7 µM (inactive)	27.9 µM (inactive)	–	20.4 µM (inactive)	35.6 µM (inactive)	–	16.8 µM (inactive)	16.9 µM (inactive)	18.5 µM (inactive)	59.7 µM (inactive)	> 100 µM (inactive)	23.3 µM (inactive)	19.2 µM (inactive)	16.2 µM (inactive)	–
COc1cc(/C=C2/C(=O)N/C(=N\C(C)=O)N2C)ccc1OC(C)=O	–	> 100 µM (inactive)	> 100 µM (inactive)	> 100 µM (inactive)	> 100 µM (inactive)	> 100 µM (inactive)	> 100 µM (inactive)	> 100 µM (inactive)	–	> 100 µM (inactive)	–	–	> 100 µM (inactive)	> 100 µM (inactive)	> 100 µM (inactive)	47.9 µM (inactive)	> 100 µM (inactive)	> 100 µM (inactive)	> 100 µM (inactive)	> 100 µM (inactive)
Cc1c(N2C(=O)/C(=C/C=C/c3ccccc3)N=C2c2ccccc2)c(=O)n(-c2ccccc2)n1C	–	25.6 µM (inactive)	37.8 µM (inactive)	34.8 µM (inactive)	31.4 µM (inactive)	22.1 µM (inactive)	17.8 µM (inactive)	14.9 µM (inactive)	28.8 µM (inactive)	21.7 µM (inactive)	19.1 µM (inactive)	17.9 µM (inactive)	21.3 µM (inactive)	–	30.8 µM (inactive)	32.9 µM (inactive)	16.8 µM (inactive)	18.9 µM (inactive)	16.4 µM (inactive)	28.8 µM (inactive)
Cc1cc(-c2cccc3ccccc23)c(C#N)c(=S)n1C1OC(CO)C(O)C(O)C1O (configuration not stated)	> 100 µM (inactive)	> 100 µM (inactive)	> 100 µM (inactive)	> 100 µM (inactive)	> 100 µM (inactive)	> 100 µM (inactive)	> 100 µM (inactive)	> 100 µM (inactive)	> 100 µM (inactive)	> 100 µM (inactive)	–	> 100 µM (inactive)	> 100 µM (inactive)	–	52.7 µM (inactive)	> 100 µM (inactive)	–	> 100 µM (inactive)	> 100 µM (inactive)	> 100 µM (inactive)
O=C1CSC(c2cccc([N+](=O)[O-])c2)N1c1ccc(-n2c(-c3ccccc3)nc3ccccc3c2=O)cc1 (configuration not stated)	> 100 µM (inactive)	> 100 µM (inactive)	> 100 µM (inactive)	> 100 µM (inactive)	> 100 µM (inactive)	> 100 µM (inactive)	> 100 µM (inactive)	83.8 µM (inactive)	> 100 µM (inactive)	> 100 µM (inactive)	> 100 µM (inactive)	–	> 100 µM (inactive)	> 100 µM (inactive)	6.68 µM (inactive)	> 100 µM (inactive)	> 100 µM (inactive)	> 100 µM (inactive)	13.9 µM (inactive)	> 100 µM (inactive)
CCCCn1c(C)c2c(c1C)C(=O)N(CCN1CCN(c3ccccc3Cl)CC1)C2=O	39 µM (inactive)	38.2 µM (inactive)	69.3 µM (inactive)	18.6 µM (inactive)	21.9 µM (inactive)	51.2 µM (inactive)	34.6 µM (inactive)	22 µM (inactive)	21 µM (inactive)	46.7 µM (inactive)	24.7 µM (inactive)	–	17.9 µM (inactive)	–	22.5 µM (inactive)	43.5 µM (inactive)	36.5 µM (inactive)	28.6 µM (inactive)	32.4 µM (inactive)	32.4 µM (inactive)
CC(=O)n1nc(-c2ccccc2)n(/N=C/c2ccc([N+](=O)[O-])cc2)c1=O	> 100 µM (inactive)	> 100 µM (inactive)	> 100 µM (inactive)	> 100 µM (inactive)	> 100 µM (inactive)	35 µM (inactive)	> 100 µM (inactive)	> 100 µM (inactive)	90.8 µM (inactive)	> 100 µM (inactive)	> 100 µM (inactive)	65.9 µM (inactive)	> 100 µM (inactive)	> 100 µM (inactive)	> 100 µM (inactive)	> 100 µM (inactive)	> 100 µM (inactive)	> 100 µM (inactive)	> 100 µM (inactive)	–
CC1CN=C(Nc2ccc(F)cc2F)S1 (configuration not stated)	> 100 µM (inactive)	> 100 µM (inactive)	> 100 µM (inactive)	> 100 µM (inactive)	–	> 100 µM (inactive)	> 100 µM (inactive)	> 100 µM (inactive)	> 100 µM (inactive)	> 100 µM (inactive)	> 100 µM (inactive)	–	> 100 µM (inactive)	> 100 µM (inactive)	88.9 µM (inactive)	> 100 µM (inactive)	> 100 µM (inactive)	> 100 µM (inactive)	–	> 100 µM (inactive)
Nc1cc(N)cc(Cc2ccccc2)c1	> 100 µM (inactive)	> 100 µM (inactive)	> 100 µM (inactive)	> 100 µM (inactive)	> 100 µM (inactive)	> 100 µM (inactive)	> 100 µM (inactive)	> 100 µM (inactive)	> 100 µM (inactive)	> 100 µM (inactive)	–	> 100 µM (inactive)	> 100 µM (inactive)	> 100 µM (inactive)	> 100 µM (inactive)	> 100 µM (inactive)	> 100 µM (inactive)	> 100 µM (inactive)	–	> 100 µM (inactive)
CCN(CC)CCCC(C)Nc1ccnc(/C=C/c2ccc(Cl)cc2)c1 (configuration not stated)	–	1.91 µM (inactive)	2.29 µM (inactive)	1.72 µM (inactive)	1.11 µM (active)	0.497 µM (active)	1.83 µM (inactive)	1.22 µM (inactive)	1.21 µM (inactive)	3.12 µM (inactive)	1.72 µM (inactive)	–	1.67 µM (inactive)	1.7 µM (inactive)	1.93 µM (inactive)	2.38 µM (inactive)	1.66 µM (inactive)	2.02 µM (inactive)	1.94 µM (inactive)	2.55 µM (inactive)
C=C1C(=O)OC2C3C(=C)[C@@H](OC(C)=O)CC3C(C)=CC(OC(=O)C(C)(OC(C)=O)C(C)OC(C)=O)[C@@H]12 (some centres not stated)	–	24.3 µM (inactive)	10.6 µM (inactive)	11 µM (inactive)	14.6 µM (inactive)	18.5 µM (inactive)	14.9 µM (inactive)	6.56 µM (inactive)	13.6 µM (inactive)	–	6.55 µM (inactive)	12.3 µM (inactive)	17.4 µM (inactive)	15.1 µM (inactive)	23.3 µM (inactive)	14.1 µM (inactive)	16.5 µM (inactive)	14.9 µM (inactive)	13.3 µM (inactive)	11.5 µM (inactive)
C=CCOc1cccc(C2(O)c3ccccc3C3=NCCCN32)c1 (configuration not stated)	21.8 µM (inactive)	5.6 µM (inactive)	34.7 µM (inactive)	10.9 µM (inactive)	12.4 µM (inactive)	57 µM (inactive)	17.1 µM (inactive)	10.2 µM (inactive)	19.9 µM (inactive)	> 35.2 µM (inactive)	15.2 µM (inactive)	–	15.8 µM (inactive)	5.51 µM (inactive)	17.4 µM (inactive)	33.3 µM (inactive)	15.6 µM (inactive)	16 µM (inactive)	16.1 µM (inactive)	16.8 µM (inactive)
